Test results taken from paper PMC5218480 (PLoS ONE, 2017).

Test system: MV-4-11 cells
Assay: Gene expression microarray analysis (Affymetrix PrimeView) and GSEA
Format: cell-based, human
Parameters: RFU PODN (11730768_x_at) / Fold change /veh PODN (11730768_x_at) / RFU LINC00158 (11744669_a_at) / Fold change /veh LINC00158 (11744669_a_at) / RFU DUSP10 (11751237_a_at) / Fold change /veh DUSP10 (11751237_a_at) / RFU ID3 (11757404_x_at) / Fold change /veh ID3 (11757404_x_at) / RFU PLEKHG5 (11737974_s_at) / Fold change /veh PLEKHG5 (11737974_s_at) / RFU LRRC4B (11730491_at) / Fold change /veh LRRC4B (11730491_at) / RFU GIMAP4 (11747438_a_at) / Fold change /veh GIMAP4 (11747438_a_at) / RFU KRT8 (11758183_x_at) / Fold change /veh KRT8 (11758183_x_at) / RFU CNN1 (11734310_a_at) / Fold change /veh CNN1 (11734310_a_at) / RFU VPS37D (11726825_at) / Fold change /veh VPS37D (11726825_at) / RFU C10orf10 (11716522_x_at) / Fold change /veh C10orf10 (11716522_x_at) / RFU KIR2DL2 /// KIR2DL4 /// KIR2DL5A /// KIR2DL5B /// KIR2DS1 /// KIR2DS2 /// KIR2DS3 /// KIR2DS4 /// KIR3DL3 /// KIR3DL3 /// KIR3DS1 (11738374_at) / Fold change /veh KIR2DL2 /// KIR2DL4 /// KIR2DL5A /// KIR2DL5B /// KIR2DS1 /// KIR2DS2 /// KIR2DS3 /// KIR2DS4 /// KIR3DL3 /// KIR3DL3 /// KIR3DS1 (11738374_at) / RFU C1QL1 (11718748_at) / Fold change /veh C1QL1 (11718748_at) / RFU TMPRSS4 (11747572_a_at) / Fold change /veh TMPRSS4 (11747572_a_at) / RFU HAMP (11756126_x_at) / Fold change /veh HAMP (11756126_x_at) / RFU RNFT2 (11725882_a_at) / Fold change /veh RNFT2 (11725882_a_at) / RFU NR4A2 (11747474_a_at) / Fold change /veh NR4A2 (11747474_a_at) / RFU ABCC12 (11746883_a_at) / Fold change /veh ABCC12 (11746883_a_at) / RFU TMEM136 (11760407_x_at) / Fold change /veh TMEM136 (11760407_x_at) / RFU CLDN22 /// WWC2 (11732394_at) / Fold change /veh CLDN22 /// WWC2 (11732394_at) / RFU HLA-DPB1 (11760878_x_at) / Fold change /veh HLA-DPB1 (11760878_x_at) / RFU SPINT1 (11716480_a_at) / Fold change /veh SPINT1 (11716480_a_at) / RFU GAP43 (11754022_s_at) / Fold change /veh GAP43 (11754022_s_at) / RFU A4GNT (11735810_at) / Fold change /veh A4GNT (11735810_at) / RFU PRB3 (11715151_x_at) / Fold change /veh PRB3 (11715151_x_at) / RFU TUBB4B (11761932_at) / Fold change /veh TUBB4B (11761932_at) / RFU CAPN14 (11732068_a_at) / Fold change /veh CAPN14 (11732068_a_at) / RFU TMCC2 (11721928_a_at) / Fold change /veh TMCC2 (11721928_a_at) / RFU IRGQ (11745062_a_at) / Fold change /veh IRGQ (11745062_a_at) / RFU FAM174B (11720279_a_at) / Fold change /veh FAM174B (11720279_a_at) / RFU TMPRSS4 (11748680_a_at) / Fold change /veh TMPRSS4 (11748680_a_at) / RFU FAM212B (11763350_a_at) / Fold change /veh FAM212B (11763350_a_at) / RFU PLEKHG5 (11743358_a_at) / Fold change /veh PLEKHG5 (11743358_a_at) / RFU ZSCAN30 (11745921_a_at) / Fold change /veh ZSCAN30 (11745921_a_at) / RFU CMKLR1 (11741424_a_at) / Fold change /veh CMKLR1 (11741424_a_at) / RFU LOC101060620 /// MAPK8IP1 (11723275_at) / Fold change /veh LOC101060620 /// MAPK8IP1 (11723275_at) / RFU SPTSSB (11747773_x_at) / Fold change /veh SPTSSB (11747773_x_at) / RFU PRSS12 (11739890_at) / Fold change /veh PRSS12 (11739890_at) / RFU BIN1 (11741810_x_at) / Fold change /veh BIN1 (11741810_x_at) / RFU WNT11 (11732464_a_at) / Fold change /veh WNT11 (11732464_a_at) / RFU C10orf10 (11716521_a_at) / Fold change /veh C10orf10 (11716521_a_at) / RFU C5orf56 (11738089_at) / Fold change /veh C5orf56 (11738089_at) / RFU CYB561 (11721691_x_at) / Fold change /veh CYB561 (11721691_x_at) / RFU ANKRD19P (11752326_a_at) / Fold change /veh ANKRD19P (11752326_a_at) / RFU OR2T12 /// OR2T33 /// OR2T8 (11738714_s_at) / Fold change /veh OR2T12 /// OR2T33 /// OR2T8 (11738714_s_at) / RFU VCAN (11748164_a_at) / Fold change /veh VCAN (11748164_a_at) / RFU JSRP1 (11732532_at) / Fold change /veh JSRP1 (11732532_at) / RFU KRTAP10-11 (11738290_x_at) / Fold change /veh KRTAP10-11 (11738290_x_at) / RFU MYO3A (11730013_a_at) / Fold change /veh MYO3A (11730013_a_at) / RFU EBF3 (11725865_a_at) / Fold change /veh EBF3 (11725865_a_at) / RFU CAMK2N1 (11719241_x_at) / Fold change /veh CAMK2N1 (11719241_x_at) / RFU C5orf56 (11738088_a_at) / Fold change /veh C5orf56 (11738088_a_at) / RFU OLFML3 (11715873_a_at) / Fold change /veh OLFML3 (11715873_a_at) / RFU LOC100653217 /// NTM (11731650_a_at) / Fold change /veh LOC100653217 /// NTM (11731650_a_at) / RFU MAPK11 (11762145_a_at) / Fold change /veh MAPK11 (11762145_a_at) / RFU FIZ1 (11724087_x_at) / Fold change /veh FIZ1 (11724087_x_at) / RFU OASL (11726364_x_at) / Fold change /veh OASL (11726364_x_at) / RFU SOX15 (11748057_x_at) / Fold change /veh SOX15 (11748057_x_at) / RFU CD79A (11719716_a_at) / Fold change /veh CD79A (11719716_a_at) / RFU HIST1H1D (11736915_at) / Fold change /veh HIST1H1D (11736915_at) / RFU CASKIN2 (11723855_a_at) / Fold change /veh CASKIN2 (11723855_a_at) / RFU LOC730098 (11760151_x_at) / Fold change /veh LOC730098 (11760151_x_at) / RFU OR4N2 (11742367_at) / Fold change /veh OR4N2 (11742367_at) / RFU PRRT2 (11749266_a_at) / Fold change /veh PRRT2 (11749266_a_at) / RFU SNX32 (11753110_a_at) / Fold change /veh SNX32 (11753110_a_at) / RFU CDHR5 (11726645_a_at) / Fold change /veh CDHR5 (11726645_a_at) / RFU RCAN1 (11760418_a_at) / Fold change /veh RCAN1 (11760418_a_at) / RFU FAM167A (11723789_a_at) / Fold change /veh FAM167A (11723789_a_at) / RFU FAM26E (11764081_at) / Fold change /veh FAM26E (11764081_at) / RFU ISYNA1 (11749810_s_at) / Fold change /veh ISYNA1 (11749810_s_at) / RFU ACY1 (11761880_at) / Fold change /veh ACY1 (11761880_at) / RFU 11764098_at / Fold change /veh 11764098_at / RFU SAMD14 (11745864_x_at) / Fold change /veh SAMD14 (11745864_x_at) / RFU NPB (11741838_a_at) / Fold change /veh NPB (11741838_a_at) / RFU TMPRSS6 (11731388_a_at) / Fold change /veh TMPRSS6 (11731388_a_at) / RFU KRTAP10-2 (11738614_at) / Fold change /veh KRTAP10-2 (11738614_at) / RFU ARHGAP8 /// PRR5-ARHGAP8 (11727945_x_at) / Fold change /veh ARHGAP8 /// PRR5-ARHGAP8 (11727945_x_at) / RFU KRTAP5-7 /// NADSYN1 (11734609_at) / Fold change /veh KRTAP5-7 /// NADSYN1 (11734609_at) / RFU RASL12 (11751679_a_at) / Fold change /veh RASL12 (11751679_a_at) / RFU CDKN2B (11736163_a_at) / Fold change /veh CDKN2B (11736163_a_at) / RFU PRF1 (11729649_at) / Fold change /veh PRF1 (11729649_at) / RFU, ZNF638 /// ZNF638-IT1 / Fold change vs veh, ZNF638 /// ZNF638-IT1 / RFU, PANK3 / Fold change vs veh, PANK3 / RFU, SH3YL1 / Fold change vs veh, SH3YL1 / RFU, ZEB2 / Fold change vs veh, ZEB2 / RFU, NRIP1 / Fold change vs veh, NRIP1 / RFU, PTTG1IP / Fold change vs veh, PTTG1IP / RFU, CAPN2 / Fold change vs veh, CAPN2 / RFU, MED14 / Fold change vs veh, MED14 / RFU, SNORA58 / Fold change vs veh, SNORA58 / RFU, C1orf63 / Fold change vs veh, C1orf63 / RFU, LRRFIP1 / Fold change vs veh, LRRFIP1 / RFU, NDUFAF7 / Fold change vs veh, NDUFAF7 / RFU, SLC12A2 / Fold change vs veh, SLC12A2 / RFU, IBTK / Fold change vs veh, IBTK / RFU, ESF1 / Fold change vs veh, ESF1 / Fold change vs veh, TMEM50B / RFU, TAOK1 / Fold change vs veh, TAOK1 / RFU, ACBD3 / Fold change vs veh, ACBD3 / RFU, TMA16 / Fold change vs veh, TMA16 / RFU, RWDD3 / Fold change vs veh, RWDD3 / RFU, BCAT1 / Fold change vs veh, BCAT1 / RFU, EDEM3 / Fold change vs veh, EDEM3 / RFU, TMEM33 / Fold change vs veh, TMEM33 / RFU, WDR75 / Fold change vs veh, WDR75 / RFU, AHCTF1 / Fold change vs veh, AHCTF1 / RFU, TFRC / Fold change vs veh, TFRC / RFU, ZDHHC17 / Fold change vs veh, ZDHHC17 / RFU, NOM1 / Fold change vs veh, NOM1 / RFU, ARL8B / Fold change vs veh, ARL8B / RFU, ZBTB11 / Fold change vs veh, ZBTB11 / RFU, TAMM41 / Fold change vs veh, TAMM41 / RFU, KIAA1704 /// LOC100996395 / Fold change vs veh, KIAA1704 /// LOC100996395 / RFU, ING1 / Fold change vs veh, ING1 / RFU, TRMT61B / Fold change vs veh, TRMT61B / RFU, FUBP3 / Fold change vs veh, FUBP3 / RFU, TP53 / Fold change vs veh, TP53 / RFU, TNKS2 / Fold change vs veh, TNKS2 / RFU, ZFP14 / Fold change vs veh, ZFP14 / RFU, ACTR2 / Fold change vs veh, ACTR2 / RFU, PPP3R1 / Fold change vs veh, PPP3R1 / RFU, PIK3R1 / Fold change vs veh, PIK3R1 / RFU, HNRNPA1 / Fold change vs veh, HNRNPA1 / RFU, RNF170 / Fold change vs veh, RNF170 / RFU, ZNF28 / Fold change vs veh, ZNF28 / RFU, RNGTT / Fold change vs veh, RNGTT / RFU, OGT / Fold change vs veh, OGT / RFU, BRD1 / Fold change vs veh, BRD1 / RFU, MARS / Fold change vs veh, MARS / RFU, ZNF655 / Fold change vs veh, ZNF655 / RFU, FAHD1 / Fold change vs veh, FAHD1 / RFU, BDP1 / Fold change vs veh, BDP1 / RFU, LRRCC1 / Fold change vs veh, LRRCC1 / RFU, ARID1A / Fold change vs veh, ARID1A / RFU, ZNF146 / Fold change vs veh, ZNF146 / RFU, ZNF330 / Fold change vs veh, ZNF330 / RFU, GPN3 / Fold change vs veh, GPN3 / RFU, C9orf123 / Fold change vs veh, C9orf123 / RFU, N4BP2L2 / Fold change vs veh, N4BP2L2 / RFU, ARFIP1 / Fold change vs veh, ARFIP1 / RFU, FAM179B / Fold change vs veh, FAM179B / RFU, BCL10 / Fold change vs veh, BCL10 / RFU, UHRF1BP1L / Fold change vs veh, UHRF1BP1L / RFU, BET1 / Fold change vs veh, BET1 / RFU, CNOT2 / Fold change vs veh, CNOT2 / RFU, ZNF268 / Fold change vs veh, ZNF268 / Fold change vs veh, ZNF507 / RFU, DGCR2 / Fold change vs veh, DGCR2 / RFU, WDSUB1 / Fold change vs veh, WDSUB1 / Fold change vs veh, HSP90B1 /// MIR3652 / RFU, ADSS / Fold change vs veh, ADSS / RFU, GK / Fold change vs veh, GK / RFU, ZNF148 / Fold change vs veh, ZNF148 / RFU, TAF9 / Fold change vs veh, TAF9 / RFU, SLC1A5 / Fold change vs veh, SLC1A5 / RFU, SLMO2 / Fold change vs veh, SLMO2 / RFU, ABCC4 / Fold change vs veh, ABCC4 / RFU, LOC101060439 /// RAP1B / Fold change vs veh, LOC101060439 /// RAP1B / RFU, RFX7 / Fold change vs veh, RFX7 / RFU, GTPBP10 / Fold change vs veh, GTPBP10 / RFU, CNEP1R1 / Fold change vs veh, CNEP1R1 / RFU, BIVM-ERCC5 /// ERCC5 / Fold change vs veh, BIVM-ERCC5 /// ERCC5 / RFU, ILF3 / Fold change vs veh, ILF3 / RFU 11762660_at / Fold change /veh 11762660_at / RFU VCAN (11757783_s_at) / Fold change /veh VCAN (11757783_s_at) / RFU DDX43 (11728927_at) / Fold change /veh DDX43 (11728927_at) / RFU KRT8 (11758188_x_at) / Fold change /veh KRT8 (11758188_x_at) / RFU NKD1 (11759106_at) / Fold change /veh NKD1 (11759106_at) / RFU SRD5A1 (11742802_a_at) / Fold change /veh SRD5A1 (11742802_a_at) / RFU TPSAB1 /// TPSB2 (11721975_s_at) / Fold change /veh TPSAB1 /// TPSB2 (11721975_s_at) / RFU GSTM3 (11746129_a_at) / Fold change /veh GSTM3 (11746129_a_at) / RFU IL23R (11737362_x_at) / Fold change /veh IL23R (11737362_x_at) / RFU TMEM51 (11727254_a_at) / Fold change /veh TMEM51 (11727254_a_at) / RFU PIWIL2 (11732686_x_at) / Fold change /veh PIWIL2 (11732686_x_at) / RFU ORM1 (11744905_x_at) / Fold change /veh ORM1 (11744905_x_at) / RFU CCDC152 (11743942_at) / Fold change /veh CCDC152 (11743942_at) / RFU ECM1 (11717891_a_at) / Fold change /veh ECM1 (11717891_a_at) / RFU IL23R (11748794_a_at) / Fold change /veh IL23R (11748794_a_at) / RFU TNFAIP8L3 (11732012_x_at) / Fold change /veh TNFAIP8L3 (11732012_x_at) / RFU MBOAT4 (11741988_at) / Fold change /veh MBOAT4 (11741988_at) / RFU 11764193_at / Fold change /veh 11764193_at / RFU TMEM53 (11763286_at) / Fold change /veh TMEM53 (11763286_at) / RFU MAGEB2 (11727129_at) / Fold change /veh MAGEB2 (11727129_at) / RFU TMEM200A (11744735_a_at) / Fold change /veh TMEM200A (11744735_a_at) / RFU CCDC152 (11751479_a_at) / Fold change /veh CCDC152 (11751479_a_at) / RFU FAM211A (11726209_a_at) / Fold change /veh FAM211A (11726209_a_at) / RFU RGS16 (11746705_a_at) / Fold change /veh RGS16 (11746705_a_at) / RFU VCAN (11755009_s_at) / Fold change /veh VCAN (11755009_s_at) / RFU RHOB (11743442_s_at) / Fold change /veh RHOB (11743442_s_at) / RFU RGS16 (11720943_a_at) / Fold change /veh RGS16 (11720943_a_at) / RFU RGS16 (11720944_at) / Fold change /veh RGS16 (11720944_at) / RFU, VPS4B / Fold change vs veh, VPS4B / RFU, CREB1 / Fold change vs veh, CREB1 / RFU, DNAJC13 / Fold change vs veh, DNAJC13 / RFU, GNAQ / Fold change vs veh, GNAQ / RFU, CDK5R1 / Fold change vs veh, CDK5R1 / RFU, ZRANB3 / Fold change vs veh, ZRANB3 / RFU, CUL4A / Fold change vs veh, CUL4A / RFU, CCNY / Fold change vs veh, CCNY / RFU, UFL1 / Fold change vs veh, UFL1 / RFU, COG3 / Fold change vs veh, COG3 / RFU, DIAPH2 / Fold change vs veh, DIAPH2 / RFU, SKA2 / Fold change vs veh, SKA2 / RFU, AFF3 / Fold change vs veh, AFF3 / RFU, LMF1 / Fold change vs veh, LMF1 / RFU, IPO11 / Fold change vs veh, IPO11 / RFU, DFFB / Fold change vs veh, DFFB / RFU, FOXP1 / Fold change vs veh, FOXP1 / RFU, CARD8 / Fold change vs veh, CARD8 / RFU, STRN3 / Fold change vs veh, STRN3 / RFU, ADK / Fold change vs veh, ADK / RFU, RASSF2 / Fold change vs veh, RASSF2 / RFU, WIPF1 / Fold change vs veh, WIPF1 / RFU, LARP1B / Fold change vs veh, LARP1B / RFU, RASA1 / Fold change vs veh, RASA1 / RFU, RB1 / Fold change vs veh, RB1 / RFU, PPFIA1 / Fold change vs veh, PPFIA1 / RFU, MAT2A / Fold change vs veh, MAT2A / RFU, CCT5 / Fold change vs veh, CCT5 / RFU, WDR92 / Fold change vs veh, WDR92 / RFU, CUX1 / Fold change vs veh, CUX1 / RFU, TTC7A / Fold change vs veh, TTC7A / RFU, TMEM135 / Fold change vs veh, TMEM135 / RFU, DEPTOR / Fold change vs veh, DEPTOR / RFU, CPM / Fold change vs veh, CPM / RFU, DNAJB6 / Fold change vs veh, DNAJB6 / RFU, CACNA2D3 / Fold change vs veh, CACNA2D3 / RFU, DTX4 / Fold change vs veh, DTX4 / RFU, TFCP2 / Fold change vs veh, TFCP2 / RFU, GMCL1 /// GMCL1P1 / Fold change vs veh, GMCL1 /// GMCL1P1 / RFU, AEBP2 / Fold change vs veh, AEBP2 / RFU, SNHG1 /// SNORD22 /// SNORD25 /// SNORD26 /// SNORD27 /// SNORD28 /// SNORD29 /// SNORD31 / Fold change vs veh, SNHG1 /// SNORD22 /// SNORD25 /// SNORD26 /// SNORD27 /// SNORD28 /// SNORD29 /// SNORD31 / Fold change (Aza/veh), C12orf56 (ProbeSet 11735607_a_at) / Fold change (ACY-1035/veh), C12orf56 (ProbeSet 11735607_a_at) / Fold change (Aza/veh), FGFR1OP (ProbeSet 11751329_s_at) / Fold change (ACY-1035/veh), FGFR1OP (ProbeSet 11751329_s_at) / Fold change (Aza/veh), VPS36 (ProbeSet 11739960_a_at) / Fold change (ACY-1035/veh), VPS36 (ProbeSet 11739960_a_at) / RFU SYPL1 (11715823_x_at) / Fold change /veh SYPL1 (11715823_x_at) / RFU IGFBP7 (11715501_s_at) / Fold change /veh IGFBP7 (11715501_s_at) / RFU REEP3 (11722064_at) / Fold change /veh REEP3 (11722064_at) / RFU IGLL1 (11728026_x_at) / Fold change /veh IGLL1 (11728026_x_at): dose or concentration left out as unconfirmed
Details: MV-4-11 cells, 48 hours

Compound: Nc1ccc(-c2cccs2)cc1NC(=O)c1ccc2c(c1)cc(C1CC1)n2CCN1CCOCC1 [ACY-1035]
- Fold change /veh TMEM51 (11727254_a_at): 0.98
